From patent US8772307B2, “Substituted spiro compounds and their use for producing pain-relief medicaments” (Gruenenthal GmbH, priority 2005, dated 2014)
pIC50: −log10 of the molar value.

What was measured:
[1] = target: T1, rat-species vanilloid receptor 1 (VR1/TRPV1) (Rattus norvegicus, UniProt O35433); assay: Functional testing on vanilloid receptor 1 (VR1/TRPV1): FLIPR Ca2+ inflow assay in rat dorsal root ganglia cells (% activation / % inhibition vs capsaicin); type: cell-based; conditions: for inhibition at 10 µM: inhibition compared to 10 μM CP (capsaicin); for activation at 10 µM: stimulation compared to 10 μM CP (capsaicin)
T1 construct: endogenous in cells; host or cells: primary cells dissociated from rat dorsal root ganglia (DRG)
T1 sequence (O35433 whole entry): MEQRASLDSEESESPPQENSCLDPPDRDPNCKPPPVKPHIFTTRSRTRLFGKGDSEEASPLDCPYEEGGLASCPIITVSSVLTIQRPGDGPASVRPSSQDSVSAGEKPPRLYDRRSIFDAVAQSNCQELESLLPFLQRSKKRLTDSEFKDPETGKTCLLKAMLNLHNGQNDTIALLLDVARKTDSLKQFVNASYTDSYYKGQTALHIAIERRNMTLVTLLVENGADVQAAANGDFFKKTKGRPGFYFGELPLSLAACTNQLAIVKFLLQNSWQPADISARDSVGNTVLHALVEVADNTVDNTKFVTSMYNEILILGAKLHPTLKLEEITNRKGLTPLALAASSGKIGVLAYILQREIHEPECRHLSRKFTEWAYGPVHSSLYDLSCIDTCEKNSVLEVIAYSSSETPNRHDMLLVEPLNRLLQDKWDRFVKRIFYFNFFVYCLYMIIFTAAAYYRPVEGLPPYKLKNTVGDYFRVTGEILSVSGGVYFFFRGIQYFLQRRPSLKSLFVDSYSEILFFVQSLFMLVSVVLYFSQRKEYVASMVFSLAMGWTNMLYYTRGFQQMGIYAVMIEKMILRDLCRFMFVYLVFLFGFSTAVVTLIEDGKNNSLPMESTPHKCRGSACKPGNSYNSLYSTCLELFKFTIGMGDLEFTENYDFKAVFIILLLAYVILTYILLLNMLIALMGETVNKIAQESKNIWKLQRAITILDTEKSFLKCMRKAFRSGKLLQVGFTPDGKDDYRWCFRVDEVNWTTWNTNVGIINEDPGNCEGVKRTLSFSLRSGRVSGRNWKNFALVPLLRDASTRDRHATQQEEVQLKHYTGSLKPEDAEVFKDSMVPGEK
Method: Preference may also be given to substituted spiro compounds according to the invention of general formula I which in a FLIPR assay in a concentration of 10 μM display inhibition of the Ca^2+ ion inflow in dorsal root ganglia of rats of at least 30%, preferably of at least 40%, particularly preferably of at least 50%, most particularly preferably of at least 70%, even more preferably of at least 90%, compared to the maximum achievable inhibition of the Ca^2+ ion inflow with capsaicin in a concentration of 10 μM.
In the FLIPR assay, the Ca^2+ inflow is quantified using a Ca^2+-sensitive dye (type Fluo-4, Molecular Probes Europe BV, Leiden, Netherlands) in a fluorescent imaging plate reader (FLIPR, Molecular Devices, Sunnyvale, USA), as described hereinafter.
I. Functional Testing Carried Out on the Vanilloid Receptor 1 (VR1/TRPV1 Receptor)
(§1) The agonistic or antagonistic effect of the substances to be tested can be determined on the rat-species vanilloid receptor 1 (VR1/TRPV1) using the following assay. According to this assay, the Ca^2+ inflow is quantified through the receptor channel using a Ca^2+-sensitive dye (type Fluo-4, Molecular Probes Europe BV, Leiden, Netherlands) in a fluorescent imaging plate reader (FLIPR, Molecular Devices, Sunnyvale, USA).
Complete medium: 50 mL HAMS F12 nutrient mixture (Gibco Invitrogen GmbH, Karlsruhe, Germany) with
10% by volume of FCS (foetal calf serum, Gibco Invitrogen GmbH, Karlsruhe, Germany, […]);
2 mM L-glutamine (Sigma, Munich, Germany);
1% by weight of AA solution (antibiotic/antimyotic solution, PAA, Pasching, Austria)
and 25 ng/ml NGF medium (2.5 S, Gibco Invitrogen GmbH, Karlsruhe, Germany)
Cell culture plate: Poly-D-lysine-coated, black 96 well plates having a clear base (96 well black/clear plate, BD Biosciences, Heidelberg, Germany) were additionally coated with laminin (Gibco Invitrogen GmbH, Karlsruhe, Germany), the laminin being diluted with PBS (Ca—Mg-free PBS, Gibco Invitrogen GmbH, Karlsruhe, Germany) to a concentration of 100 μg/mL. Aliquots having a laminin concentration of 100 μg/mL were removed and stored at −20° C. The aliquots were diluted with PBS in a ratio of 1:10 to 10 μg/mL laminin and in each case 50 μL of the solution were pipetted into a recess in the cell culture plate. The cell culture plates were incubated for at least two hours at 37° C., the excess solution was removed by suction-filtration and the recesses were each washed twice with PBS. The coated cell culture plates were stored with excess PBS which was not removed until just before the feeding of the cells.
Preparation of the Cells:
The vertebral column was removed from decapitated rats and placed immediately into cold HBSS buffer (Hank's buffered saline solution, Gibco Invitrogen GmbH, Karlsruhe, Germany), i.e. buffer located in an ice bath, mixed with 1% by volume (percent by volume) of an AA solution (antibiotic/antimyotic solution, PAA, Pasching, Austria). The vertebral column was cut longitudinally and removed together with fasciae from the vertebral canal. Subsequently, the dorsal root ganglia (DRG) were removed and again stored in cold HBSS buffer mixed with 1% by volume of an AA solution. The DRG, from which all blood remnants and spinal nerves had been removed, were transferred in each case to 500 μL of cold type 2 collagenase (PAA, Pasching, Austria) and incubated for 35 minutes at 37° C. After the addition of 2.5% by volume of trypsin (PAA, Pasching, Austria), incubation was continued for 10 minutes at 37° C. After complete incubation, the enzyme solution was carefully pipetted off and 500 μL of complete medium were added to each of the remaining DRG. The DRG were in each case suspended several times, drawn through cannulae No. 1, No. 12 and No. 16 using a syringe and transferred to a 50 mL Falcon tube which was filled up to 15 mL with complete medium. […]

vanilloid receptor (VR1) = target: T2, vanilloid receptor (VR1) (Homo sapiens, UniProt Q8NER1); assay: Functional testing on vanilloid receptor (VR1): FLIPR Ca2+ inflow assay in CHO K1 cells stably transfected with the VR1 gene; type: cell-based; conditions: for inhibition at 10 µM: CHO-K1, inhibition compared to 10 μM CP (capsaicin); for activation at 10 µM: CHO-K1, stimulation compared to 10 μM CP (capsaicin)
T2 construct: expressed in transfected cells; host or cells: CHO K1 cells (ECACC), stably transfected
T2 sequence (Q8NER1 whole entry): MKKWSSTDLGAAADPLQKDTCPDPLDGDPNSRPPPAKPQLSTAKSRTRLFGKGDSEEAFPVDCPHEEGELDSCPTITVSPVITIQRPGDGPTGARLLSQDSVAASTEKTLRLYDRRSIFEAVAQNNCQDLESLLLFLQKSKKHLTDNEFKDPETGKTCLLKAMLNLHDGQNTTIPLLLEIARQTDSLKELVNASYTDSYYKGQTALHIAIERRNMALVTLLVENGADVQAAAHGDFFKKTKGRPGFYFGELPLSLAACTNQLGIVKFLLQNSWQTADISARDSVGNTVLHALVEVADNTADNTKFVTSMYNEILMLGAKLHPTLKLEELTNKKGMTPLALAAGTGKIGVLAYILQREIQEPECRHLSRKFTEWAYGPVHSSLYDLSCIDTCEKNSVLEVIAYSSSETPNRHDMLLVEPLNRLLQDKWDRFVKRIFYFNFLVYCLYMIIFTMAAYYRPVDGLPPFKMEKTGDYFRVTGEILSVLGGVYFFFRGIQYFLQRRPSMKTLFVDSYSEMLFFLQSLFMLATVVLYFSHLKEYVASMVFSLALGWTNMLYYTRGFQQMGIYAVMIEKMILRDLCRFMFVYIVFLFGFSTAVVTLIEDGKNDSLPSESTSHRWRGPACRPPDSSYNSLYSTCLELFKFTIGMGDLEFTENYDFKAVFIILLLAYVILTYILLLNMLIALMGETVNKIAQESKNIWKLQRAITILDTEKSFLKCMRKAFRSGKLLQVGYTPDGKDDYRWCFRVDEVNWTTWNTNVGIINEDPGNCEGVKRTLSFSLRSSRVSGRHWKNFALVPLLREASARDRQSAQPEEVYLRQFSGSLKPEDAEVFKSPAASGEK
Excerpt: II. Functional Testing Carried Out on the Vanilloid Receptor (VR1)
as §1, with “can also” for “can”, “the” for “the rat-species”, “(VR1)” for “1 (VR1/TRPV1)”, “the” for “the receptor”
Chinese hamster ovary cells (CHO K1 cells, European Collection of Cell Cultures (ECACC) United Kingdom) were stably transfected with the VR1 gene. For functional testing, these cells were plated out on poly-D-lysine-coated black 96 well plates having a clear base (BD Biosciences, Heidelberg, Germany) at a density of 25,000 cells/well. The cells were incubated overnight at 37° C. and 5% CO2 in a culture medium (Ham's F12 nutrient mixture, 10% by volume of FCS (foetal calf serum), 18 μg/ml L-proline). The next day the cells were incubated with Fluo-4 (Fluo-4 2 μM, 0.01% by volume of Pluronic F127, Molecular Probes in HBSS (Hank's buffered saline solution), Gibco Invitrogen GmbH, Karlsruhe, Germany) for 30 minutes at 37° C. Subsequently, the plates were washed 3 times with HBSS buffer and after further incubation for 15 minutes at room temperature used for Ca^2+ measurement in a FLIPR assay. The Ca^2+-dependent fluorescence was measured before and after the addition of the substances to be tested (λex wavelength=488 nm, λem=540 nm). Quantification was carried out by measuring the highest fluorescence intensity (FC, Fluorescence Counts) over time.
The FLIPR protocol consists of 2 substance additions. First the compounds to be tested (10 μM) were pipetted onto the cells and the Ca^2+ inflow was compared with the control (capsaicin 10 μM) (% activation based on the Ca^2+ signal after the addition of 10 μM capsaicin). After 5 minutes' incubation, 100 nM of capsaicin were administered and the Ca^2+ inflow was also determined.
Desensitising agonists and antagonists led to suppression of the Ca^2+ inflow. The % inhibition was calculated compared to the maximum achievable inhibition with 10 μM of capsaicin.

Compound	inhibition at 10 µM [1] [%]	activation at 10 µM [1] [%]	inhibition at 10 µM (vanilloid receptor (VR1)) [%]	activation at 10 µM (vanilloid receptor (VR1)) [%]	pIC50 ([1]; capsaicin (CAP) stimulus, average)
CC(C)(C)c1ccc(C2=NOC3(CCN(C(=O)Nc4ccc(I)cc4)CC3)C2)cc1 [Compound 45, 3-(4-tert-butylphenyl)-1-oxa-2,8-diazaspiro[4.5]dec-2-ene-8-carboxylic acid-(4-iodophenyl)amide]	55.5	-0.73	0.17	-0.04	
CCc1ccc(NC(=O)N2CCC3(CC2)CC(c2ccc(Cl)cc2)=NO3)cc1 [Compound 164, 3-(4-chlorophenyl)-1-oxa-2,8-diazaspiro[4.5]dec-2-ene-8-carboxylic acid-(4-ethylphenyl)amide]	72.9	-0.43	-2.13	-0.04	
CC(C)(C)c1ccc(NC(=O)N2CCC3(CC2)CC(c2ncccc2Cl)=NO3)cc1 [Compound 329, 3-(3-chloropyridin-2-yl)-1-oxa-2,8-diazaspiro[4.5]dec-2-ene-8-carboxylic acid-(4-tert-butylphenyl)amide]	96	71	37	38	
COc1ccc(NC(=O)N2CCC3(CC2)CC(c2cccc(OC)c2)=NO3)cc1 [Compound 47, 3-(3-methoxyphenyl)-1-oxa-2,8-diazaspiro[4.5]dec-2-ene-8-carboxylic acid-(4-methoxyphenyl)amide]	48.3	0.92	11.4	0.01	
CCCc1ccccc1NC(=O)N1CCC2(CC1)CC(c1ccccc1)=NO2 [Compound 22, 3-phenyl-1-oxa-2,8-diazaspiro[4.5]dec-2-ene-8-carboxylic acid-(2-propylphenyl)amide]	40.3	-0.73	10.1	-0.14	
O=C(C#Cc1ccc(C(F)(F)F)cc1)N1CCC2(CC1)CC(c1ccccc1)=NO2 [Compound 363, 1-(3-phenyl-1-oxa-2,8-diazaspiro[4.5]dec-2-en-8-yl)-3-(4-(trifluoromethyl)phenyl)prop-2-yn-1-one]	81	0	30	0	
CC1CN(C(=O)Nc2ccc(C(F)(F)F)cc2)CCC12CC(c1ccccc1)=NO2 (stereo not shown) [Compound 385, 6-methyl-3-phenyl-N-(4-(trifluoromethyl)phenyl)-1-oxa-2,8-diazaspiro[4.5]dec-2-ene-8-carboxamide]	77	1	18	-2	7.22
O=C(Nc1ccc(C(F)(F)F)cc1)N1CCC2(CC1)CC(c1ccccc1)=NO2 [Compound 211, 3-phenyl-1-oxa-2,8-diazaspiro[4.5]dec-2-ene-8-carboxylic acid-(4-trifluoromethylphenyl)amide]	97.5	0.33	9.23	-0.18	
CC(C)(C)c1ccc(NC(=O)N2CCC3(CC2)CC(c2ccc(C(F)(F)F)cc2)=NO3)cc1 [Compound 145, 3-(4-trifluoromethylphenyl)-1-oxa-2,8-diazaspiro[4.5]dec-2-ene-8-carboxylic acid-(4-tert-butylphenyl)amide]	59.9	-0.2	4.26	2.49	
O=C(Nc1ccc(C(F)(F)F)cc1)N1CCC2(CC1)CC(c1ccc(Cl)cc1)=NO2 [Compound 212, 3-(4-chlorophenyl)-1-oxa-2,8-diazaspiro[4.5]dec-2-ene-8-carboxylic acid-(4-trifluoromethylphenyl)amide]	61.9	-0.43	-16.1	-0.21	
O=C(Nc1cccc(C(F)(F)F)c1)N1CCC2(CC1)CC(c1ccccc1)=NO2 [Compound 90, 3-phenyl-1-oxa-2,8-diazaspiro[4.5]dec-2-ene-8-carboxylic acid-(3-trifluoromethylphenyl)amide]	55.9	-0.47	-7.62	-0.15	
CC(C)(C)c1ccc(C(/C=C/c2ccccc2)=C/C(=O)N2CCC3(CC2)CC(c2ccccc2)=NO3)cc1 [Compound 337, (2E,4E)-3-(4-tert-butylphenyl)-5-phenyl-1-(3-phenyl-1-oxa-2,8-diazaspiro[4.5]dec-2-en-8-yl)penta-2,4-dien-1-one]	95	1	16	-1	
O=C(Nc1ccc(C(F)(F)F)cc1)N1CCC2(CC1)CC(c1cccc(F)c1)=NO2 [Compound 348, 3-(3-fluorophenyl)-N-(4-(trifluoromethyl)phenyl)-1-oxa-2,8-diazaspiro[4.5]dec-2-ene-8-carboxamide]	101	3	60	0	
CC(C(=O)N1CCC2(CC1)CC(c1cccc(F)c1)=NO2)c1ccc(NS(C)(=O)=O)c(F)c1 (stereo not shown) [Compound 366, N-(2-fluoro-4-(1-(3-(3-fluorophenyl)-1-oxa-2,8-diazaspiro[4.5]dec-2-en-8-yl)-1-oxopropan-2-yl)phenyl)methanesulphonamide]	29	0	-20	-1	
O=C(Nc1ccc(OC(F)(F)F)cc1)N1CCC2(CC1)CC(c1ccccc1)=NO2 [Compound 245, 3-phenyl-1-oxa-2,8-diazaspiro[4.5]dec-2-ene-8-carboxylic acid-(4-trifluoromethoxyphenyl)amide]	99	2.55	11	0.28	
